In publication PMC6008492, “Structure activity relationship studies on rhodanines and derived enethiol inhibitors of metallo-β-lactamases” (Bioorganic & Medicinal Chemistry, 2018):
Like-named read-outs stand apart in the source and are kept apart here.

What was measured:
IMP-1 = target: T1, IMP-1 (Serratia marcescens, UniProt P52699); assay: IMP-1 inhibition, fluorogenic cephalosporin (FC5) hydrolysis; assay type: biochemical
T1 construct: made in house
Protocol: (§1) Inhibition analyses against bacterial MBLs and SBLs were performed as described previously.[22], [24], [26] Residual enzyme activities were determined for a range of inhibitor concentrations. Non-linear regression fitting of IC50 curves was carried out using a three-parameter dose–response curve in GraphPad Prism. Errors in IC50 values are expressed as: σ(logIC50)/logIC50×IC50
(§2) We first screened the inhibitors against a representative set of presently clinically important and other MBLs[22], comprising both Class B1 enzymes (NDM-1, New Delhi MBL-1; VIM-2, Verona integron–encoded MBL-2; BcII, Bacillus cereus II MBL; SPM-1, São Paulo MBL-1; IMP-1, imipenemase MBL-1) and the Class B2 MBL CphA (carbapenem hydrolysing MBL from Aeromonas hydrophila).[22] The latter MBL (CphA) only utilises one active site Zn(II) ion in catalysis, whilst the others normally use two Zn(II) ions.
Figure S3: IC50 curves for IMP-1 inhibition time courses. Residual activities were calculated from the
initial rate of FC5 hydrolysis after incubation of the enzyme with the inhibitor for 10 minutes.

BcII = target: T2, BcII (Bacillus cereus, UniProt P04190); assay: biochemical
T2 construct: made in house
T2 sequence (P04190 31-257): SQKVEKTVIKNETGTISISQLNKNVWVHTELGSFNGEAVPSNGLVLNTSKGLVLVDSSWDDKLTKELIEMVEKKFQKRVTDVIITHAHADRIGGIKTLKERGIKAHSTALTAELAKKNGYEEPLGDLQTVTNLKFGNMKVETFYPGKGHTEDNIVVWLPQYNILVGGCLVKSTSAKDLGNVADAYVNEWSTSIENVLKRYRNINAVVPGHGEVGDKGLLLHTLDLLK
Protocol: as §1, §2
Figure S2: IC50 curves for BcII inhibition time courses. Residual activities were calculated from the initial
rate of FC5 hydrolysis after incubation of the enzyme with the inhibitor for 10 minutes. […]

VIM-2 = target: T3, VIM-2 (Escherichia coli, UniProt Q5U7L7); assay: biochemical
T3 construct: made in house
Protocol: as §1
as §2, with “ions. We also screened the inhibitors against a representative panel of SBLs from different classes (TEM-1, Temoneira β-lactamase-1, class A; CTX-M-15, cefotaxime hydrolysing β-lactamase from Munich 15, class A, extended spectrum β-lactamase (ESBL); AmpC E. coli, class C, and OXA-10, oxacillinase-10, class D).” for “ions.”
Figure S6: IC50 curves for VIM-2 inhibition time courses. Residual activities were calculated from the
(§3) initial rate of FC5 hydrolysis after incubation of the enzyme with the inhibitor for 10 minutes. […]

NDM-1 = target: T4, NDM-1 (Klebsiella pneumoniae, UniProt C7C422); assay: NDM-1 inhibition, fluorogenic cephalosporin (FC5) hydrolysis; assay type: biochemical
T4 construct: made in house
T4 sequence (C7C422 29-270, looked up, species assumed): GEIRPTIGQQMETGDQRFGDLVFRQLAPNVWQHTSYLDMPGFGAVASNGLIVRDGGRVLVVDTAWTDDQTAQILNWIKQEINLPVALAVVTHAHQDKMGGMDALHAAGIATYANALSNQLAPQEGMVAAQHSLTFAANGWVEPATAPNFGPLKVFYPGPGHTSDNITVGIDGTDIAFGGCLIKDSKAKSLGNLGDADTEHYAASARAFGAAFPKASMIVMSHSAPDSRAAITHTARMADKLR
Protocol: as §1, §2
Figure S4: IC50 curves for NDM-1 inhibition time courses. Residual activities were calculated from the
as §3

SPM-1 = SPM-1 (Pseudomonas aeruginosa, UniProt Q8G9Q0); assay: SPM-1 inhibition, fluorogenic cephalosporin (FC5) hydrolysis; assay type: biochemical
SPM-1, sequence (Q8G9Q0 entry or part of it): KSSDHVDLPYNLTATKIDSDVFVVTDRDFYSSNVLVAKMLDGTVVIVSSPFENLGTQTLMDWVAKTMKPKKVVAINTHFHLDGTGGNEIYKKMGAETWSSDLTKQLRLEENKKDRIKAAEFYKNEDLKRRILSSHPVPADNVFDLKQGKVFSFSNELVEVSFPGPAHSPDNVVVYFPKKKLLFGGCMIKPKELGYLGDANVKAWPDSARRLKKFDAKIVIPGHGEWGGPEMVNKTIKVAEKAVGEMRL
Protocol: as §1, §2
Figure S5: IC50 curves for SPM-1 inhibition time courses. Residual activities were calculated from the
as §3

CphA = target: T5, CphA (Aeromonas hydrophila, UniProt P26918); assay: CphA (subclass B2 MBL) inhibition; assay type: biochemical
T5 construct: made in house
T5 sequence (P26918 28-254): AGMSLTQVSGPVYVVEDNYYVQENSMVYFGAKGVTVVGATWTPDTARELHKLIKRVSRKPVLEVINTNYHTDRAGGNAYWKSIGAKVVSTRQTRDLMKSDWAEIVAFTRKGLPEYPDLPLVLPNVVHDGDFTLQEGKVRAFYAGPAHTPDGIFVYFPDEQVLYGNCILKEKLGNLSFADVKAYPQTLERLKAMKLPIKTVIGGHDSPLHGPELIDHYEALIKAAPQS
Protocol: as §1
as §2, with “ions. We also screened the inhibitors against a representative panel of SBLs from different classes (TEM-1, Temoneira β-lactamase-1, class A; CTX-M-15, cefotaxime hydrolysing β-lactamase from Munich 15, class A, extended spectrum β-lactamase (ESBL); AmpC E. coli, class C, and OXA-10, oxacillinase-10, class D).” for “ions.”

[1] = system: MBLs (SPM-1, IMP-1, BcII, VIM-2, NDM-1); assay type: biochemical; conditions: for MBL inhibition, result in words: at 100 µM
Protocol: as §1
as §2, with “ions. We also screened the inhibitors against a representative panel of SBLs from different classes (TEM-1, Temoneira β-lactamase-1, class A; CTX-M-15, cefotaxime hydrolysing β-lactamase from Munich 15, class A, extended spectrum β-lactamase (ESBL); AmpC E. coli, class C, and OXA-10, oxacillinase-10, class D).” for “ions.”

CTX-M-15 = target: T6, CTX-M-15 (Escherichia coli, UniProt Q9EXV5); assay: SBL inhibition, CTX-M-15; assay type: biochemical; conditions: read-out: residual activity CTX-M-15
T6 construct: made in house
T6 sequence (Q9EXV5 29-291, species assumed): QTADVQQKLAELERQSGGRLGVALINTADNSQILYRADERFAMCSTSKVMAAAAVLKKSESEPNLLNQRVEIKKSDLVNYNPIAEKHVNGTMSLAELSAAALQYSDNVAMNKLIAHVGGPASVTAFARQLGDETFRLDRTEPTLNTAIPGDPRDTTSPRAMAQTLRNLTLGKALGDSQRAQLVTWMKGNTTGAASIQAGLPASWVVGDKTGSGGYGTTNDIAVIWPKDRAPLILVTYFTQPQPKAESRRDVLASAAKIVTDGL
Protocol: as §1
as §2, with “ions. We also screened the inhibitors against a representative panel of SBLs from different classes (TEM-1, Temoneira β-lactamase-1, class A; CTX-M-15, cefotaxime hydrolysing β-lactamase from Munich 15, class A, extended spectrum β-lactamase (ESBL); AmpC E. coli, class C, and OXA-10, oxacillinase-10, class D).” for “ions.”
(§4) Figure S1. Residual activities of serine-β-lactamases (SBLs) upon inhibition by rhodanines and enethiols at
(§5) Inhibition of intact rhodanine on a panel of SBLs
(§6) Inhibition of intact rhodanine amide on a panel […]

AmpC = target: T7, AmpC (Escherichia coli, UniProt P00811); assay: SBL inhibition, AmpC; assay type: biochemical, E. coli; conditions: read-out: residual activity AmpC
T7 construct: made in house
T7 sequence (P00811 20-377): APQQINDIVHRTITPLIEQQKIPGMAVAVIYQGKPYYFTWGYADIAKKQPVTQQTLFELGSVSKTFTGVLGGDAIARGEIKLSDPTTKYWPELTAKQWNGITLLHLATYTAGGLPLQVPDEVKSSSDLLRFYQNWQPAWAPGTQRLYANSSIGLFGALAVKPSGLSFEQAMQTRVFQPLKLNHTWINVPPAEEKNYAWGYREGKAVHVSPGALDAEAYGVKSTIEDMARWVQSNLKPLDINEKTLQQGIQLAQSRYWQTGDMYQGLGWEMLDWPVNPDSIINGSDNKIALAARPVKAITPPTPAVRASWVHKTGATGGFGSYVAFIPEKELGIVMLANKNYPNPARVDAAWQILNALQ
Protocol: as §1
as §2, with “ions. We also screened the inhibitors against a representative panel of SBLs from different classes (TEM-1, Temoneira β-lactamase-1, class A; CTX-M-15, cefotaxime hydrolysing β-lactamase from Munich 15, class A, extended spectrum β-lactamase (ESBL); AmpC E. coli, class C, and OXA-10, oxacillinase-10, class D).” for “ions.”
as §4, §5, §6

OXA-10 = target: T8, OXA-10 (Pseudomonas aeruginosa, UniProt P14489); assay: SBL inhibition, OXA-10; assay type: biochemical; conditions: read-out: residual activity OXA-10
T8 construct: made in house
T8 sequence (P14489 20-266, species assumed): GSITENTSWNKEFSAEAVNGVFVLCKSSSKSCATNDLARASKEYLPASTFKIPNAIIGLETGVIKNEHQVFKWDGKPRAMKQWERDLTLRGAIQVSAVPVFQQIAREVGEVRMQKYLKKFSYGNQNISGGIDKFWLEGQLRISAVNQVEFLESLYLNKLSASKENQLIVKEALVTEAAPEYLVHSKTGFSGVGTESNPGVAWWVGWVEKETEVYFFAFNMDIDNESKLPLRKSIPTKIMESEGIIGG
Protocol: as §1
as §2, with “ions. We also screened the inhibitors against a representative panel of SBLs from different classes (TEM-1, Temoneira β-lactamase-1, class A; CTX-M-15, cefotaxime hydrolysing β-lactamase from Munich 15, class A, extended spectrum β-lactamase (ESBL); AmpC E. coli, class C, and OXA-10, oxacillinase-10, class D).” for “ions.”
as §4, §5, §6

TEM-1 = target: T9, TEM-1 (Escherichia coli, UniProt P62593); assay: SBL inhibition, TEM-1; assay type: biochemical; conditions: read-out: residual activity TEM-1
T9 construct: made in house
T9 sequence (P62593 24-286 limits assumed): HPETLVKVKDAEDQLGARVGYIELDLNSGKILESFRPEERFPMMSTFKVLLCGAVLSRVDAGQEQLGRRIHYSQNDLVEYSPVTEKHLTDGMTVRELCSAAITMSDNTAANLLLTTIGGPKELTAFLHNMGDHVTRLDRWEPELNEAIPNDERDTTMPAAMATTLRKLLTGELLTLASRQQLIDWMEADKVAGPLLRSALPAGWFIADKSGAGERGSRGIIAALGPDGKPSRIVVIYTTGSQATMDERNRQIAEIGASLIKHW
Protocol: as §1
as §2, with “ions. We also screened the inhibitors against a representative panel of SBLs from different classes (TEM-1, Temoneira β-lactamase-1, class A; CTX-M-15, cefotaxime hydrolysing β-lactamase from Munich 15, class A, extended spectrum β-lactamase (ESBL); AmpC E. coli, class C, and OXA-10, oxacillinase-10, class D).” for “ions.”
as §4, §5, §6

[2] = 1H NMR time course stability (hydrolysis) test; assay type: physicochemical; conditions: 200 µM, pH 7.5, presence or absence of NDM-1, timescale of the inhibition studies
Protocol: NMR experiments were carried out using a Bruker Avance III 700 MHz machine equipped with a TCI inverse cryoprobe or a Bruker Avance III HD 600 MHz spectrometer equipped with a Prodigy cryoprobe at 298 K. Data were analysed using Bruker Topspin 3.5. Processing of spectra was done with a Lorentzian line broadening of 0.3 Hz. Chemical shifts (δ) are given as parts per million (ppm) relative to residual HDO (δH 4.70 ppm for ^1H NMR).
For rhodanine stability studies solutions were buffered in either freshly prepared NH4HCO3 (50 mM, pH 7.50) or Tris-d11 (50 mM, pH 7.50) both with NaCl (100 mM) in D2O. ML302 stock solution (50 mM in DMSO‑d6) was added to a sample to give a final concentration of 200 µM. When specified, NDM-1 was added to give a final concentration of 1 µM. The reaction was followed at 1 h intervals over 18 h (Figs. S7 and S8).
Figure S7. […] A, 10 (200 µM) in NH4HCO3 (50 mM, pH
7.5 in D2O) in the absence of NDM-1, 1H NMR time course over 18 hours; B, 10 (200 µM) in NH4HCO3 (50 mM, pH 7.5 in D2O) in the presence of NDM-1 (1 µM), 1H NMR time course over 18 hours; C, 10 (200 µM) in Tris-d11 (50 mM, pH 7.5 in D2O) in the absence of NDM-1, 1H NMR time course over 18 hours; D, 10 (200 µM) in Tris-d11 (50 mM, pH 7.5 in D2O) and in the presence of NDM-1 (1 µM), 1H NMR time course over 18 hours. […]

[3] = Table 2, read-out: IC50 versus BcII
[4] = Table 2, read-out: IC50 versus SPM-1
[5] = enethiols 6 assayed as sodium salts, 10 min incubation, read-out: IC50 IMP-1 (converted)
[6] = enethiols 6 assayed as sodium salts, 10 min incubation, read-out: IC50 BcII (converted)
[7] = enethiols 6 assayed as sodium salts, 10 min incubation, read-out: IC50 VIM-2 (converted)
[8] = enethiols 6 assayed as sodium salts, 10 min incubation, read-out: IC50 NDM-1
[9] = enethiols 6 assayed as sodium salts, 10 min incubation, read-out: IC50 SPM-1 (converted)
[10] = Table 2, read-out: IC50 versus CphA

T1 sequence (P52699 19-246, looked up, species assumed): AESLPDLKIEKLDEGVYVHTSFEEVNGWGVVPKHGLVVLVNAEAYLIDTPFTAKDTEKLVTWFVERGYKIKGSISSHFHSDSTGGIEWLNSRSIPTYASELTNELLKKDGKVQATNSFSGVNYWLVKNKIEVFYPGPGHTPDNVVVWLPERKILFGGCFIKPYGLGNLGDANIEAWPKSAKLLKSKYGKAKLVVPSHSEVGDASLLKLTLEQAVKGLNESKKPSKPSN

Structure (SMILES) | IC50 (BcII; [3]) [nM] | IC50 (SPM-1; [4]) [nM] | IC50 (CphA) [nM] | IC50 (IMP-1; [5]) [nM] | IC50 (BcII; [6]) [nM] | IC50 (VIM-2; [7]) [nM] | IC50 (NDM-1; [8]) [nM] | IC50 (SPM-1; [9]) [nM] | further results
O=C(O)C(O)Cc1ccccc1 (centres unmarked) [3-Phenyllactic acid, reference compound] | > 100000 | > 100000 | > 100000 | – | – | – | – | – | IC50 (IMP-1): > 100000 nM; IC50 (VIM-2): > 100000 nM; IC50 (NDM-1): > 100000 nM; MBL inhibition, result in words [1]: inactive
CN1CCN(NC(=O)CN2C(=O)/C(=C/c3c(Cl)ccc(Cl)c3Cl)SC2=S)CC1 [ML302, reference compound] | – | – | – | 90 | 300 | 60 | 15600 | 100 | fold less active than ML302F, BcII (BcII; ratio of IC50 values): ~4 fold; fold less active than ML302F, NDM-1 (NDM-1; ratio of IC50 values): ~15 fold; fold less active than ML302F, SPM-1 (SPM-1; ratio of IC50 values): ~5 fold; IC50 (CphA; read-out: IC50 CphA): > 50000 nM
O=C(O)C(S)c1ccccc1 (centres unmarked) [Compound 13a] | – | 50 ± 1 | – | – | – | – | – | – | IC50 (IMP-1): 70 ± 3 nM; IC50 (BcII; read-out: IC50 versus BcII): 100 nM; IC50 (VIM-2): 40 ± 1 nM; IC50 (NDM-1): 12900 ± 1000 nM; IC50 (CphA; [10]): 71000 ± 1000 nM
O=C(O)C(O)c1ccccc1 (centres unmarked) [Mandelic acid, reference compound] | > 100000 | > 100000 | > 100000 | – | – | – | – | – | IC50 (IMP-1): > 100000 nM; IC50 (VIM-2): > 100000 nM; IC50 (NDM-1): > 100000 nM; MBL inhibition, result in words [1]: inactive
O=C(O)/C(S)=C/c1c2ccccc2cc2ccccc12 [Compound 6r] | – | – | – | – | > 50000 | 50 ± 1 | 1700 ± 600 | – | remaining activity at 200 µM (CTX-M-15): ~65%; remaining activity at 200 µM (AmpC): ~41%; remaining activity at 200 µM (OXA-10): ~47%; remaining activity at 200 µM (TEM-1): ~1%
CN1CCN(NC(=O)CN2C(=O)S/C(=C\c3c(Cl)ccc(Cl)c3Cl)C2=O)CC1 [Compound 10] | – | – | – | – | 600 ± 50 | 200 ± 20 | > 50000 | 500 ± 40 | hydrolysis by 1H NMR (700 MHz) [2]: did not observe hydrolysis
O=C(O)/C(S)=C/c1c(Cl)cccc1Cl [Compound 6m] | – | – | 800 ± 20 | 10 | 70 | 30 | 600 | 10 | IC50 ([1]; lower end of the range, read-out: IC50 values from (lowest across the MBL panel)): 10 nM
O=C(O)C(S)Cc1ccccc1 (centres unmarked) [Compound 13b] | 1400 ± 300 | 70 ± 1 | – | – | – | – | – | – | IC50 (IMP-1; Table 2, read-out: IC50 versus IMP-1): 50 ± 2 nM; IC50 (VIM-2; Table 2, read-out: IC50 versus VIM-2): 70 ± 2 nM; IC50 (NDM-1; Table 2, read-out: IC50 versus NDM-1): 38700 ± 4700 nM; IC50 (CphA; [10]): 130000 ± 10000 nM
O=C(O)/C(S)=C/c1c(Cl)ccc(Cl)c1Cl [ML302F, reference compound] | – | – | – | 20 | 80 | 40 | 2400 | 20 | IC50 (CphA; read-out: IC50 CphA): 200 ± 4 nM
CN1CCN(NC(=O)CN2C(=O)/C(=C/c3c4ccccc4cc4ccccc34)SC2=S)CC1 [Compound 5r] | – | – | – | – | – | – | – | – | remaining activity at 200 µM (CTX-M-15): ~40%; remaining activity at 200 µM (AmpC): ~18%; remaining activity at 200 µM (OXA-10): ~47%; remaining activity at 200 µM (TEM-1): ~6%
CN1CCN(NC(=O)CN2C(=O)/C(=C/c3ccccc3)SC2=S)CC1 [Compound 5a] | – | – | > 50000 | 22700 | > 50000 | 16400 | 26700 | > 50000 | –
CN1CCN(NC(=O)CN2C(=O)/C(=C/c3c(Cl)cccc3Cl)SC2=S)CC1 [Compound 5m] | – | – | > 50000 | 200 | 200 | 300 | 28400 | 200 | –
O=C(O)/C(S)=C/c1ccccc1 [Compound 6a] | 700 ± 200 | – | – | 300 | 700 | 400 | 7900 | 300 | IC50 (CphA; [10]): 2100 ± 20 nM
